The text below walks through data of US20100190694A1, “Methods for identifying patients who will respond well to cancer treatment” (priority 2009, published 2010).

Molecules are shown by their SMILES. Read-outs that look alike come from different tables or passages of the source.

Data set [1] deals with dihydropyrimidine dehydrogenase (DPD). The data set can be described thus: DPD mRNA by RTQ-PCR in tumor biopsies. Format: in vivo, human. On the procedure:
DLTs, i.e. grade ¾ non-hematologic toxicities and grade 4 neutropenia or thrombocytopenia, were determined in cycles 1 and 2. Safety was assessed by NCI CTC (v. 3) and efficacy by RECIST criteria. Expression of TS, DPD, and p21 mRNA was measured by RTQ-PCR in PBMC (20 patients at baseline, and pre-dosing, 6 and 24-hours post-dosing, on days 1 and 4 in cycle 1) and in tumor biopsies (8 patients at baseline and once on days 4 or 5 in cycle 1). Results were expressed as gene expression relative to actin (i.e. TS/Actin Relative Gene Expression, DPD/Actin Relative Gene Expression, and p21/Actin Relative Gene Expression).

Data set [2] relates to rapidly proliferating cells. The data set can be described thus: cell cycle arrest and apoptosis. Format: cell-based.
Data set [3] relates to thymidylate synthase (TS). The note with it: HCT116 colon cancer cells, in vitro; cited from earlier work.
Data set [4] in a line: Phase I study: pharmacokinetics of Bel. Format: in vivo, human. The note with it: for half-life: read-out: T1/2, group mean (±SD) (converted). The text has this:
Phase I dose-escalation, multi-center study with the objectives to assess: • maximum tolerated dose and dose limiting toxicities (DLT) of Bel in combination with FU • impact of Bel on expression of TS, dihydropyrimidine dehydrogenase (DPD), and p21, in tumor and non-tumor surrogate tissue (peripheral blood mononuclear cells; PBMC) • preliminary anti-tumor activity of Bel in combination with FU • impact of Bel on ECG parameters • pharmacokinetics (PK) of Bel when given in combination with FU
Treatment cycles of 21 days included Bel alone in cycle 1, and Bel in combination with FU in all subsequent cycles (FIG. 4). Treatment was to continue until significant treatment-related toxicity or progressive disease.

Where [5] appears, read: belinostat 1000 mg/m^2/day alone, Cycle 2 Day 1, n = 14.
[6] abbreviates: belinostat 1000 mg/m^2/day in combination with FU, Cycle 2 Day 5, n = 13.

Usually Cmax stands for the peak of the concentration-time curve. Regarding `O=C(/C=C/c1cccc(S(=O)(=O)Nc2ccccc2)c1)NO` [PXD-101], in data set [1] (Bel monotherapy, Bel 1000 mg/m^2/day), the “DPD expression change in tumor tissue” value is reported as “minor changes”. Further, the “DPD Change vs baseline” value in data set [1] (patient tumor samples, cycle 1 day 4 or 5, Bel 1000 mg/m^2/day, one value per patient, listed as belinostat) was “≈”. The “cell cycle arrest and apoptosis” value in data set [2] was “causes cell cycle arrest and apoptosis”. The “expression of thymidylate synthase (TS)” value in data set [3] is “reduce the expression”. Besides, in data set [4] (setting [5]), the “CL, group mean (±SD)” value is given as 37,580 (10,893) ml/hr/m^2; the “Vss, group mean (±SD)” value is 16,528 (4,918) ml/m^2; the “Vz, group mean (±SD)” value was 58,362 (26,136) ml/m^2. For the same compound, in data set [4] (setting [6]), the “CL, group mean (±SD)” value is listed as 30,141 (13,824) ml/hr/m^2; the “Vss, group mean (±SD)” value is given as 13,538 (7,253) ml/m^2; the “Vz, group mean (±SD)” value was 53,316 (29,753) ml/m^2. For the same compound, the PK linearity entry in data set [4] (day 1 across all dose cohorts (n=22)) was “linear PK”. In addition, the half-life in data set [4] (human, in vivo, intravenous, 1000 mg/m2, belinostat 1000 mg/m^2/day alone, Cycle 2 Day 1, n = 14) was 1 h. Moreover, the AUC(0-inf) in data set [4] (human, in vivo, intravenous, belinostat 1000 mg/m^2/day in combination with FU, Cycle 2 Day 5, n = 13, read-out: AUC0-∞, group mean (±SD)) stood at 33300 ng·h/mL. Further, the AUC in data set [4] (human, in vivo, intravenous, belinostat 1000 mg/m^2/day in combination with FU, Cycle 2 Day 5, n = 13, read-out: AUCall, group mean (±SD)) is 33200 ng·h/mL. Moreover, the Cmax in data set [4] (human, in vivo, intravenous, belinostat 1000 mg/m^2/day in combination with FU, Cycle 2 Day 5, n = 13, read-out: Cmax, group mean (±SD)) was 49500 ng/mL. Further, the half-life in data set [4] (human, in vivo, intravenous, belinostat 1000 mg/m^2/day in combination with FU, Cycle 2 Day 5, n = 13) is 1.2 h.
